The source of these data is patent US20170190705A1, “Compositions and Methods for Inhibiting BMP” (THE BRIGHAM AND WOMAN'S HOSPITAL, INC., priority 2014, published 2017).

Molecules are shown by their SMILES. Where two headings read alike, the source gives them in different places.

In assay [1] the target is T1, IRAK4 (Homo sapiens, UniProt Q9NWZ3).
T1 sequence (Q9NWZ3 1-460): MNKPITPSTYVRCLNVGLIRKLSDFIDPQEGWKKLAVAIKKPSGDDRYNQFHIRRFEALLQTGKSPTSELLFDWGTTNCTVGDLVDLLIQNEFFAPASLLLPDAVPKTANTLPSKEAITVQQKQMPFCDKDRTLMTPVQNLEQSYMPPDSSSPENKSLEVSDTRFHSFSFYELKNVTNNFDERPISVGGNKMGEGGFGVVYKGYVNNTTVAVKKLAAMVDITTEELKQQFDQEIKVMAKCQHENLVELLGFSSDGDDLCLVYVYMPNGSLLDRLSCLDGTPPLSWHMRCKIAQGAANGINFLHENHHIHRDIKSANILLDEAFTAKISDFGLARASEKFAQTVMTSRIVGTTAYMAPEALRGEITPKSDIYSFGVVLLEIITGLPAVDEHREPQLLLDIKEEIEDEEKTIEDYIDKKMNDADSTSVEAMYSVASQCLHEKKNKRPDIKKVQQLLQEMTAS
Briefly: Kinome profiling IRAK4. It counts as biochemical. The conditions noted are these: read-out: Inhibitory activity IRAK4; for inhibition at 0.1 µM: 100 nM. As to the method: (§1) . The kinome-wide selectivity was determined following the methods previously reported by Mohedas et al., ACS Chem Biol 2013, 8, 1291-1302 and Sanvitale et al., PLoS One 2013, 8, e62721.

Assay [2] addresses FGFR2 (Homo sapiens, UniProt P21802). Briefly: Kinome profiling FGFR2. The conditions noted are these: read-out: Inhibitory activity FGFR2; for inhibition at 0.1 µM: 100 nM. The format is biochemical. As to the method:
as §1

For assay [3], the target named is ABL1 (Homo sapiens, UniProt P00519). Briefly: Kinome profiling ABL1. It counts as biochemical. To be noted: for inhibition at 0.1 µM: 100 nM. As to the method: as §1
Assay [4] has as its target T2, NEK2 (Homo sapiens, UniProt P51955).
T2 sequence (P51955 1-445): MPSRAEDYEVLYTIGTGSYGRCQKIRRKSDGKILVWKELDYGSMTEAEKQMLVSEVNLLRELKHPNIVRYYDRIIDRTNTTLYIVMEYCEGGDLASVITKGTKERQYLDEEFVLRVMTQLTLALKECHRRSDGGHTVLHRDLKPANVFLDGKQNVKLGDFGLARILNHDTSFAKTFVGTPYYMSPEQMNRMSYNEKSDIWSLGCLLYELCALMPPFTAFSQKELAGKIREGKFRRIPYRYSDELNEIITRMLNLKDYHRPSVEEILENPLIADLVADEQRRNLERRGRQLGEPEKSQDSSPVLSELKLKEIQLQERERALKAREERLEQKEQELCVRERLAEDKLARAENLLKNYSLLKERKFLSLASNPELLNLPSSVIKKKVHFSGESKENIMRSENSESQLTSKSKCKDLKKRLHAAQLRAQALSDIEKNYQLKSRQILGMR
Briefly: Kinome profiling NEK2. It counts as biochemical. The conditions noted are these: read-out: Inhibitory activity NEK2; for inhibition at 0.1 µM: 100 nM. As to the method:
as §1

Assay [5] concerns the target PI3-K-δ (Homo sapiens, UniProt O00329). Briefly: Kinome profiling PI3-K-δ. The conditions noted are these: read-out: Inhibitory activity PI3-K-δ; for inhibition at 0.1 µM: 100 nM. The format is biochemical. As to the method:
as §1

For assay [6], the target named is TYK2 (Homo sapiens, UniProt P29597). Briefly: Kinome profiling TYK2. To be noted: read-out: Inhibitory activity TYK2; for inhibition at 0.1 µM: 100 nM. It counts as biochemical. As to the method: as §1
Assay [7] has as its target RSK4 (Homo sapiens, UniProt Q9UK32). As to the kind of experiment: Kinome profiling RSK4. It counts as biochemical. The conditions noted are these: read-out: Inhibitory activity RSK4; for inhibition at 0.1 µM: 100 nM. As to the method: as §1
Assay [8] deals with T3, caALK4 (Homo sapiens, UniProt P36896).
T3 sequence (P36896 1-505 T206D): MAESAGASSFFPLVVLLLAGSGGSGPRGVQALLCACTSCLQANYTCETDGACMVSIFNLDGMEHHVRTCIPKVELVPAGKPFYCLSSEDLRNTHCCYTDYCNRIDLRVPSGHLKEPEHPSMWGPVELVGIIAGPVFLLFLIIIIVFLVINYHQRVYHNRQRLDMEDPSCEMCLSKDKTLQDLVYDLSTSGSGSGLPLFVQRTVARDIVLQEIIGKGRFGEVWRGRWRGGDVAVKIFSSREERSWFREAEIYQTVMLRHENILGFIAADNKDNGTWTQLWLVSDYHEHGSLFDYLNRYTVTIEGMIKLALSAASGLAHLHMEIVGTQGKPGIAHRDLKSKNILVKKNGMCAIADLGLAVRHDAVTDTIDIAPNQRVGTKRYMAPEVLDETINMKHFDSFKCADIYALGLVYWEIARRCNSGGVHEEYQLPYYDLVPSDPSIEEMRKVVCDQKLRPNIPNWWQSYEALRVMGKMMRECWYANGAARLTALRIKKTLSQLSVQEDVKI
Briefly: Luciferase reporter assay constitutively active ALK4. To be noted: read-out: Cell Based Assay caALK4 IC50. An excerpt: C2Cl2 […] cells stably transfected with BMP responsive element from the Id promoter fused to luciferase reporter gene (BRE-Luc) were generously provided by Dr. Peter ten Dijke (Leiden University Medical Center, NL) following the methods described by Zilberberg et al., BMC cell biology 2007, 8, 41-50. Human embryonic kidney 293T cells stably transfected with the TGF-β responsive element from the PAI-1 promoter fused to luciferase reporter gene (CAGA-Luc) were generously provided by Dr. Howard Weiner (Brigham and Women's Hospital, Boston, Mass.) following the methods described by Oida et al., PloS one 2011, 6, e18365. C2Cl2 Bre-Luc and 293T CAGA-Luc cells were seeded in DMEM supplemented with 2% FBS at 20,000 cells per well in tissue culture treated 96-well plates (Costar® 3610; Corning). The cells were incubated for 1 h (37° C. and 10% CO2) and allowed to settle and attach. Compounds of interest or DMSO were diluted in DMEM and added at final compound concentrations of 1 nM to 10 μM. Cells were then incubated for 30 min. Adenovirus expressing constitutively active BMP and TGF-β type I receptors (Ad.caALK1-5), generously provided by Dr. Akiko Hata (University of to California at San Francisco), were added to achieve a multiplicity of infection (MOI) of 100. Plates were incubated overnight at 37° C. Cell viability was assayed with an MIT (3-(4,5-dimethylthiazol-2-yl)-2,5-diphenyl tetrazolium bromide) colorimetric assay (Promega) per the manufacturer's instructions. Media was discarded, and firefly luciferase activity was measured (Promega) according to manufacturer's protocol. Light output was measured using a Spectramax L luminometer (Molecular Devices) with an integration time of one second per well. Data was normalized to 100% of incremental BRE-Luc activity due to adenoviruses specifying caALK1, 2, or 3, or the incremental CAGA-Luc activity due to adenoviruses specifying caALK4 or 5.
In general terms: In a reporter assay the amount or activity of a reporter protein is the signal.

[9] abbreviates: read-out: Inhibitory activity ABL1.
Setting [10] is: Table 4, read-out: Inhibitory Activity ABL1.

Chain of TYK2 (P29597 whole entry): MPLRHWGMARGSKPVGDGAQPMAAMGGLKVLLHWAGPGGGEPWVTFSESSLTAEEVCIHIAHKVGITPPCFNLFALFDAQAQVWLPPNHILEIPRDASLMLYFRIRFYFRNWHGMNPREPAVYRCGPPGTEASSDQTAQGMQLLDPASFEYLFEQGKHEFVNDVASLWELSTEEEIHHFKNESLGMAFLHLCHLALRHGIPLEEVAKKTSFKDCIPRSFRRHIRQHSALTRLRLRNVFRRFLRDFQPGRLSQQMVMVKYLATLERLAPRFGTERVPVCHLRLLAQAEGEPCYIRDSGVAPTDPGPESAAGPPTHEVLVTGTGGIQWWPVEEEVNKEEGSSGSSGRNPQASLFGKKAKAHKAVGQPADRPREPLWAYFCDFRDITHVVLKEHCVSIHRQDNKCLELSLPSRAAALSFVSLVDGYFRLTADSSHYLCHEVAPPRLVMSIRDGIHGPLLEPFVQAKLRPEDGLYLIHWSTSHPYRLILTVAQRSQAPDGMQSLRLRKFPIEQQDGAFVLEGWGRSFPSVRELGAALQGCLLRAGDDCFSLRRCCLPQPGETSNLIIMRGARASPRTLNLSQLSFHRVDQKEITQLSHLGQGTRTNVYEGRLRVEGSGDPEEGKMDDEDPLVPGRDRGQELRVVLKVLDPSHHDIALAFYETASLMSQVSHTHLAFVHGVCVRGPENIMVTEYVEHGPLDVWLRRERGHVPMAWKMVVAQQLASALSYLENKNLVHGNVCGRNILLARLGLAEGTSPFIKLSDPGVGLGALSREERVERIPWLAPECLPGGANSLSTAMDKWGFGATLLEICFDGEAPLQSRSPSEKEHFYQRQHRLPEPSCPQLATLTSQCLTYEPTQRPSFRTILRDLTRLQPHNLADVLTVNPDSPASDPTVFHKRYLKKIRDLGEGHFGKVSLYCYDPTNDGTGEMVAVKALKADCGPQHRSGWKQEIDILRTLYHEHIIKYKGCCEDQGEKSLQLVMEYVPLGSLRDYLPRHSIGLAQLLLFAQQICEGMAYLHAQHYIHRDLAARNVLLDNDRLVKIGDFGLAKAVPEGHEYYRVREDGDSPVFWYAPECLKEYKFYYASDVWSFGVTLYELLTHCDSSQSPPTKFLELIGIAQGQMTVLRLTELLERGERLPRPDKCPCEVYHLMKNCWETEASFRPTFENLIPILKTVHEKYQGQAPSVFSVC
Chain of RSK4 (Q9UK32 whole entry): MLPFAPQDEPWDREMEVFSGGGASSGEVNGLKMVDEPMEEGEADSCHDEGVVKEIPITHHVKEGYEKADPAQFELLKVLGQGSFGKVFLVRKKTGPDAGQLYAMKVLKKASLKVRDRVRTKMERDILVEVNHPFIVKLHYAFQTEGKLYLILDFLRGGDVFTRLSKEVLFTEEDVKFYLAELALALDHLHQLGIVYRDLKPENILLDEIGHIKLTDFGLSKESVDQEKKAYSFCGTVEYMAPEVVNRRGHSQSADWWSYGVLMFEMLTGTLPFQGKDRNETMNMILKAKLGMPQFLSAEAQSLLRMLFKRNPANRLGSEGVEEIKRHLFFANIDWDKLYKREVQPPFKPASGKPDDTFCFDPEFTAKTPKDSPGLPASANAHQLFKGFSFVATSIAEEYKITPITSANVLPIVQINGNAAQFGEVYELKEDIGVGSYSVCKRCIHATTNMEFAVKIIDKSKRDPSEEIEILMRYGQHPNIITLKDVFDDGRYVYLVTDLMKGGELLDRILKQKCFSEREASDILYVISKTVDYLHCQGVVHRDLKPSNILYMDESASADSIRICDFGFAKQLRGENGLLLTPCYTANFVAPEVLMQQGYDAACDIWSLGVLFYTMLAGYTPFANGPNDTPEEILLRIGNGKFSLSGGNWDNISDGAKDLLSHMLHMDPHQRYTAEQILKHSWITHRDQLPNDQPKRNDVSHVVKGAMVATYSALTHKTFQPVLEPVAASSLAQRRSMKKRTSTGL
Chain of PI3-K-δ (O00329 whole entry): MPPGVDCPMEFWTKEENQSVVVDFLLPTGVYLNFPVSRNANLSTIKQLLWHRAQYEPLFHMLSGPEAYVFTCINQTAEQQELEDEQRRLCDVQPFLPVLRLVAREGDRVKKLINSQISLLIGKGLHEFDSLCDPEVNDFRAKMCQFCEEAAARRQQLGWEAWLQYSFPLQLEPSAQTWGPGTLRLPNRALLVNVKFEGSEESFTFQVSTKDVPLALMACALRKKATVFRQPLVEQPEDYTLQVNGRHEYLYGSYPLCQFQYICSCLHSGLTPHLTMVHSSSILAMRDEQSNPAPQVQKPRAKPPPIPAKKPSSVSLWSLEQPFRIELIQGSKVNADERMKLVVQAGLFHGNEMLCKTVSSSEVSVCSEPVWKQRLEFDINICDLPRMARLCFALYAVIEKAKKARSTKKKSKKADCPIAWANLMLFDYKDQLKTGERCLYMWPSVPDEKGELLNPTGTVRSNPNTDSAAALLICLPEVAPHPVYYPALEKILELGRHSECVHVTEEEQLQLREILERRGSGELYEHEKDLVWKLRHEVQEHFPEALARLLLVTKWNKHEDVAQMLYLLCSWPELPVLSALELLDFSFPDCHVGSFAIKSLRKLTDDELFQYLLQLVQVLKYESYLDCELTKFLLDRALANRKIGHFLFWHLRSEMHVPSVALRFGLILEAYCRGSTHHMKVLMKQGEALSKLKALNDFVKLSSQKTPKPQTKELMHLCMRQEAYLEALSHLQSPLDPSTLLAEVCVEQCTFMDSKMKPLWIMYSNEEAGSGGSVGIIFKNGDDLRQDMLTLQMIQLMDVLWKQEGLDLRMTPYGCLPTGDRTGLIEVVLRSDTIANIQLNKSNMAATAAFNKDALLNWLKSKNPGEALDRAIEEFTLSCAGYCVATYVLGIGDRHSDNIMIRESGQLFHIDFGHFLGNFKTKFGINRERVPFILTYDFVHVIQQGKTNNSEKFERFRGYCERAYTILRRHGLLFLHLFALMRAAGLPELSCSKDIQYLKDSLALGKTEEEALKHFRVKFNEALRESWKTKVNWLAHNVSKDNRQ
Chain of PI3-K-δ (P27986 whole entry partner): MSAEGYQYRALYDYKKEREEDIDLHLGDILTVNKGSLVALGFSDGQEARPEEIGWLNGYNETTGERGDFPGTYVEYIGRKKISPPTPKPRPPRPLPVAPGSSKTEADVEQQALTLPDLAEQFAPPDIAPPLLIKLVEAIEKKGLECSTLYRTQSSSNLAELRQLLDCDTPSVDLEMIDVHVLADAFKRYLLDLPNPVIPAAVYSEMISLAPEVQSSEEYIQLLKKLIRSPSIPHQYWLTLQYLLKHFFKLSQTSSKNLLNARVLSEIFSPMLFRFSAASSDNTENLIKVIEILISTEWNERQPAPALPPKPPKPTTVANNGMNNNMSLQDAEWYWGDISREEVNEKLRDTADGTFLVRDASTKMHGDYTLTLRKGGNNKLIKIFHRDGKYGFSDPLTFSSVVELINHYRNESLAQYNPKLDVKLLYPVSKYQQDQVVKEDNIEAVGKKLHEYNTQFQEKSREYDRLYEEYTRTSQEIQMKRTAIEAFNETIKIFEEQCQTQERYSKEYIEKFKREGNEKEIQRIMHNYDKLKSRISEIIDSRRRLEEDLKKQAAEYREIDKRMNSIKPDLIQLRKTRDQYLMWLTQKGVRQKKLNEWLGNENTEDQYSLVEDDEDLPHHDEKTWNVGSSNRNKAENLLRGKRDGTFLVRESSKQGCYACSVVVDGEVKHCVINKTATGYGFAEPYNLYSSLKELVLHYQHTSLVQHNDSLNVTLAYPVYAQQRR
Chain of FGFR2 (P21802 22-821): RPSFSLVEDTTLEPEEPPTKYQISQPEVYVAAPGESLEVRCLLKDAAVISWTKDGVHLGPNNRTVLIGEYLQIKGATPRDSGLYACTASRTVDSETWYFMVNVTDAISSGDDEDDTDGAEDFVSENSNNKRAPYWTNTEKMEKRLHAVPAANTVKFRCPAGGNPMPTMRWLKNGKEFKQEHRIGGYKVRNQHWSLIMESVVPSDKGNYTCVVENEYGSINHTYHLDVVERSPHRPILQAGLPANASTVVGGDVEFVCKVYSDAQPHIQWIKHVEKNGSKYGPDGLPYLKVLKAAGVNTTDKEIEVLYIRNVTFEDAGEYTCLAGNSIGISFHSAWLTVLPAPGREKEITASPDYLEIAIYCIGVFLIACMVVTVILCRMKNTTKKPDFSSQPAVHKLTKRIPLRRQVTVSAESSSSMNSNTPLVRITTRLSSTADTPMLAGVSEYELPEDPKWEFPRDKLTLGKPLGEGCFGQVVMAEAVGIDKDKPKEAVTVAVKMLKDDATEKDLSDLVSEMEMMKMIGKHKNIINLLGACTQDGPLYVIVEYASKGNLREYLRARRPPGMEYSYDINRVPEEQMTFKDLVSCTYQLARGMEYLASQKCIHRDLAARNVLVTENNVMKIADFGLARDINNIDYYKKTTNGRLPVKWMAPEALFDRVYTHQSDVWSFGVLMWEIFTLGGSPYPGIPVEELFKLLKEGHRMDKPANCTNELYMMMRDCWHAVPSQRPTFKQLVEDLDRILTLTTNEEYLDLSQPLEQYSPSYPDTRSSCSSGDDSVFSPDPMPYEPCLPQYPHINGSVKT

The term IC50 denotes the midpoint of a concentration-inhibition curve. Consider `COc1cc(-c2cc(-c3ccc(N4CCNCC4)cc3)cnc2N)cc(OC)c1OC` [Compound 15, 5-(4-(piperazin-1-yl)phenyl)-3-(3,4,5-trimethoxyphenyl)pyridin-2-amine], for which the inhibition at 0.1 µM in assay [1] amounted to 1%; in assay [2] it was 2%; in assay [3] (setting [9]) it was 77%; in assay [4] it was 4%; in assay [5] it was 3%; in assay [6], 0%. Besides, the inhibition at 0.1 µM in assay [7] came out at 1%. The inhibition at 1 µM was found to be 2% in assay [1]; 5% in assay [2]; 84% in assay [3] (setting [9]); 2% in assay [4]; 7% in assay [5]; 0% in assay [6]. For the same compound, in assay [7], the inhibition at 1 µM came to 2%. In assay [8], the IC50 was 25 nM.

For the compound `COc1cc(-c2cc(-c3ccc(N4CCNCC4)cc3)cnc2C)cc(OC)c1OC` [Compound 10, 1-(4-(6-methyl-5-(3,4,5-trimethoxyphenyl)pyridin-3-yl)phenyl)piperazine], the inhibition at 0.1 µM in assay [1] is 0%; in assay [2] it was -1%; in assay [3] (setting [10]), 56%; in assay [3] (setting [9]), 56%; in assay [4], 3%; in assay [5] it was 8%. The inhibition at 0.1 µM in assay [6] is 2%; in assay [7], 1%. Further, the inhibition at 1 µM in assay [1] came to 1%; in assay [2] it was 0%; in assay [3] (setting [10]), 93%; in assay [3] (setting [9]), 93%; in assay [4], 2%; in assay [5], 7%. For the same compound, the inhibition at 1 µM in assay [6] and in assay [7] was 1% in each case. Besides, the half-inhibitory concentration (IC50) in assay [8] is 5530 nM.
